Measurements from the supplement of paper PMC10307832.

Key:
Test in all cases: relative viability (nuclei count vs DMSO), 5 days (fraction); higher = more cells survive
[1] = compound: Cc1ccc2nc(NCCN)c3ncc(C)n3c2c1 + CS(=O)(=O)N1CCN(Cc2cc3nc(-c4cccc5[nH]ncc45)nc(N4CCOCC4)c3s2)CC1 [Pictilisib] (partner 1 µM)
In short: (§1)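 Each reported value is a median over duplicate plates. It expresses relative viability: treated-well nuclei count divided by vehicle-well nuclei count. Lung cancer cell lines in 1536-well plates were dosed by pin tool a day after seeding, alone with one drug or with a fixed anchor-drug dose plus five library-drug doses (not always all listed) in √10 steps, and nuclei were counted after 5 days.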

[2] = compound: O=C(/C=C/c1ccccc1)NC(NC(=S)Nc1cccc2cccnc12)C(Cl)(Cl)Cl [Salubrinal] + Cc1cc(Nc2cc(N3CCN(C)CC3)nc(Sc3ccc(NC(=O)C4CC4)cc3)n2)n[nH]1 [Tozasertib] (partner 0.1 µM)
In short: as §1

[3] = compound: Cc1ccc2nc(NCCN)c3ncc(C)n3c2c1 + COc1cc2c(Oc3ccc(NC(=O)C4(C(=O)Nc5ccc(F)cc5)CC4)cc3F)ccnc2cc1OCCCN1CCOCC1 [Foretinib] (partner 0.25 µM)
In short: as §1

[4] = compound: O=C(/C=C/c1ccccc1)NC(NC(=S)Nc1cccc2cccnc12)C(Cl)(Cl)Cl [Salubrinal] + O=C(c1cc(Cc2n[nH]c(=O)c3ccccc23)ccc1F)N1CCN(C(=O)C2CC2)CC1 [Olaparib] (partner 8 µM)
In short: as §1

Cell Line | relative viability ([1]; first compound 0.04 µM) | relative viability ([1]; first compound 0.1265 µM) | relative viability ([1]; first compound 0.4 µM) | relative viability ([1]; first compound 1.265 µM) | relative viability ([1]; first compound 4 µM) | relative viability ([2]; first compound 0.08 µM) | relative viability ([2]; first compound 0.253 µM) | relative viability ([2]; first compound 0.8 µM) | relative viability ([2]; first compound 2.53 µM) | relative viability ([2]; first compound 8 µM) | relative viability ([3]; first compound 0.04 µM) | relative viability ([3]; first compound 0.1265 µM) | relative viability ([3]; first compound 0.4 µM) | relative viability ([3]; first compound 1.265 µM) | relative viability ([3]; first compound 4 µM) | relative viability ([4]; first compound 0.08 µM) | relative viability ([4]; first compound 0.253 µM) | relative viability ([4]; first compound 0.8 µM) | relative viability ([4]; first compound 2.53 µM) | relative viability ([4]; first compound 8 µM)
LXF-289 | 0.912 | 0.795 | 0.799 | 0.765 | 0.723 | 0.183 | 0.18 | 0.216 | 0.194 | 0.201 | 0.95 | 1 | 0.955 | 0.992 | 0.958 | 1.27 | 0.918 | 1.25 | 1.14 | 1.07
NCI-H23 | 0.549 | 0.472 | 0.446 | 0.462 | 0.466 | 0.349 | 0.393 | 0.678 | 0.305 | 0.296 | 1.09 | 1.04 | 0.963 | 0.88 | 1.03 | 0.359 | 0.233 | 0.36 | 0.31 | 0.309
NCI-H322M | 0.521 | 0.566 | 0.571 | 0.512 | 0.503 | 0.511 | 0.445 | 0.479 | 0.44 | 0.469 | 0.995 | 0.874 | 0.969 | 1.04 | 1.15 | 0.806 | 0.783 | 0.766 | 0.675 | 0.728
NCI-H358 | 0.348 | 0.394 | 0.364 | 0.379 | 0.367 | 0.107 | 0.12 | 0.111 | 0.108 | 0.0983 | 0.752 | 0.718 | 0.635 | 0.721 | 0.654 | 0.817 | 0.434 | 0.724 | 0.558 | 0.523
NCI-H441 | 0.557 | 0.464 | 0.454 | 0.505 | 0.472 | 0.554 | 0.431 | 0.74 | 0.576 | 0.448 | 1.1 | 1.28 | 0.982 | 0.926 | 0.918 | 0.732 | 0.448 | 0.675 | 0.542 | 0.514
NCI-H460 | 0.368 | 0.411 | 0.402 | 0.302 | 0.322 | 0.393 | 0.268 | 0.484 | 0.253 | 0.102 | 0.982 | 0.901 | 0.955 | 0.928 | 0.965 | 0.541 | 0.606 | 0.514 | 0.355 | 0.368
NCI-H520 | 0.276 | 0.283 | 0.282 | 0.294 | 0.368 | 0.501 | 0.446 | 0.44 | 0.403 | 0.469 | 0.878 | 0.949 | 0.647 | 0.892 | 0.661 | 0.334 | 0.361 | 0.325 | 0.322 | 0.338
NCI-H596 | 0.384 | 0.37 | 0.285 | 0.309 | 0.411 | 0.968 | 1.1 | 0.897 | 0.909 | 0.806 | 0.811 | 0.81 | 0.912 | 0.889 | 0.7 | 0.768 | 0.525 | 0.597 | 0.668 | 0.581
NCI-H647 | 0.552 | 0.409 | 0.385 | 0.44 | 0.373 | 0.418 | 0.287 | 0.319 | 0.288 | 0.009 | 1.06 | 1.18 | 1.23 | 1.15 | 0.912 | 0.72 | 0.372 | 0.685 | 0.63 | 0.453
NCI-H650 | 0.927 | 0.827 | 0.785 | 0.767 | 0.946 | 0.81 | 0.768 | 0.798 | 0.687 | 0.704 | 1.09 | 0.937 | 1.12 | 0.948 | 1 | 0.438 | 0.45 | 0.474 | 0.385 | 0.381
NCI-H661 | 0.511 | 0.514 | 0.421 | 0.35 | 0.299 | 0.367 | 0.36 | 0.373 | 0.356 | 0.37 | 1.02 | 0.983 | 1.03 | 1.1 | 0.967 | 0.753 | 0.538 | 0.76 | 0.73 | 0.758
NCI-H727 | 0.288 | 0.443 | 0.46 | 0.388 | 0.354 | 0.651 | 0.718 | 0.563 | 0.608 | 0.575 | 1.23 | 0.778 | 0.894 | 0.911 | 1.18 | 0.804 | 0.581 | 0.815 | 0.699 | 0.662
NCI-H838 | 0.43 | 0.416 | 0.409 | 0.423 | 0.365 | 0.292 | 0.246 | 0.291 | 0.25 | 0.259 | 1.16 | 1.08 | 1.04 | 1.02 | 0.982 | 0.896 | 0.542 | 0.832 | 0.789 | 0.716
NCI-H1355 | 0.46 | 0.449 | 0.406 | 0.392 | 0.386 | 0.697 | 0.519 | 0.524 | 0.498 | 0.477 | 1.03 | 0.943 | 0.901 | 0.977 | 0.978 | 0.775 | 0.903 | 0.75 | 0.766 | 0.643
NCI-H1395 | 0.689 | 0.638 | 0.642 | 0.828 | 0.551 | 0.822 | 0.849 | 0.72 | 0.714 | 0.805 | 0.998 | 0.971 | 0.947 | 0.722 | 0.989 | 0.445 | 0.448 | 0.411 | 0.466 | 0.437
NCI-H1437 | 0.427 | 0.449 | 0.443 | 0.369 | 0.374 | 0.415 | 0.362 | 0.418 | 0.404 | 0.373 | 1.32 | 1.23 | 1.33 | 1.28 | 1.2 | 0.673 | 0.547 | 0.665 | 0.614 | 0.543
